According to patent US11202854B2, “Disintegrin variants and uses thereof” (National Taiwan University, priority 2017, dated 2021):
Converted amounts (≈) assume the structure as drawn. Like-named read-outs stand apart in the source and are kept apart here. Positions of bridges follow the written chain, without caps; N, C: chain ends. Non-standard residues stand in square brackets, D forms with d. Residues, ends and D or L forms follow the SMILES beside them. hArg = N=C(N)NCCCC[C@H](N)C(=O)O; Mpa = O=C(O)CCS

Legend:
platelets [1] = test: Ex vivo collagen-induced platelet aggregation response; type: in vivo, mouse; settings: FIG. 1 panels B and C
Tail bleeding time = type: in vivo, mouse; settings: 0.18 mg/Kg, mice
Description: Male ICR mice weighing 20-30 g were used in all studies. Animals were allowed to access food and water ad libitum under controlled temperature (20±1° C.) and humidity (55%±5%). The animal experimental protocols were approved by the Laboratory Animal Use Committee of College of Medicine, National Taiwan University.
Male ICR mice were intravenously injected through a lateral tail vein of the mouse with agents. A sharp cut of 2 mm segment from the distal tail was made 5 min after injection. The amputated tail was immediately placed into a tube filled with isotonic saline at 37° C. Bleeding time was recorded for a maximum of 10 min and the end point was the arrest of bleeding.

platelets [2] = test system: platelets
Description: Disintegrin and its variants of Example 1 were subject to test for their abilities in suppressing platelet aggregation mediated by αIIbβ3. Briefly, venous blood samples from healthy donors were collected and platelet-rich plasma was prepared therefrom. The platelet-rich plasma was then incubated with the stimulant (e.g., collagen or AP2) that triggered plug formation, then with the disintegrin and/or its variants of Example 1.

platelets [3] = test: ADP-induced platelet aggregation in platelet-rich plasma; type: cell-based, human
Description: (§1) Blood was collected from healthy volunteers who had not taken any medication for two weeks prior to the study. Informed consents were obtained from each and every participants, and the study was approved by the institutional review board of National Taiwan University Hospital. Preparation of human PS was performed in accordance with procedures described previously (Huang et al., Experimental haemtology. 2008 36(12), 1704-1713).
(§2) Disintegrin and its variants of Example 1 were subject to test for their abilities in suppressing platelet aggregation mediated by αIIbβ3. Briefly, venous blood samples from healthy donors were collected and platelet-rich plasma was prepared therefrom. The platelet-rich plasma was then incubated with the stimulant (e.g., collagen or […]) that triggered plug formation, then with the disintegrin and/or its variants of Example 1.

integrin αIIbβ3 = target: T1, integrin αIIbβ3 (Homo sapiens, UniProt P05106+P08514); test: Cell adhesion assay: CHO-αIIbβ3 cells to fibrinogen; type: cell-based; settings: Table 3
T1 construct: host or cells: CHO (Chinese hamster ovary) cells
T1 sequence (P08514 32-887 limits assumed): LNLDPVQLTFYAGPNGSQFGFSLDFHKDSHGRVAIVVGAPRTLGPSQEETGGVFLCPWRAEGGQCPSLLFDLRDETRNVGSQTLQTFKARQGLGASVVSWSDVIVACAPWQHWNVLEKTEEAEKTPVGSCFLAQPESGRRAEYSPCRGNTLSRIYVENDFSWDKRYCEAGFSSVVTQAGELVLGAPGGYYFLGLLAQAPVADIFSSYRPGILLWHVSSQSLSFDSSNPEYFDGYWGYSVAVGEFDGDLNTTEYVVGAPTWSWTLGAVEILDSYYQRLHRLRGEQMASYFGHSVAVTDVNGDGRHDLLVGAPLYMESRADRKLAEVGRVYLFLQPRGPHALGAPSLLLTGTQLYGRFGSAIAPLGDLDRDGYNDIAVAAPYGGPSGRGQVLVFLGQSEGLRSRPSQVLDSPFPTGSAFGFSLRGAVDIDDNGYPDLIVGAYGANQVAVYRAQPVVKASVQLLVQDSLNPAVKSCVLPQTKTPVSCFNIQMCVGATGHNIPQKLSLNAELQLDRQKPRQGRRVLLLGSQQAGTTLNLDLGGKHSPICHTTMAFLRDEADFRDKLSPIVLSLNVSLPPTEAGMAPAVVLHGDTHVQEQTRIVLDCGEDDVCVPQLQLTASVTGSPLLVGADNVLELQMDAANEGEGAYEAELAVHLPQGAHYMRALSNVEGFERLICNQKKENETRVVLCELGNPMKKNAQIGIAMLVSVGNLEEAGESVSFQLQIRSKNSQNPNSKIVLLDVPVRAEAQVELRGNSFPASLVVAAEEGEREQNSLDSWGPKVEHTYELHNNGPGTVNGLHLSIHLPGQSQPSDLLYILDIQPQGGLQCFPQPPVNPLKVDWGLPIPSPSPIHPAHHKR
T1 sequence (P08514 891-1039 partner limits assumed): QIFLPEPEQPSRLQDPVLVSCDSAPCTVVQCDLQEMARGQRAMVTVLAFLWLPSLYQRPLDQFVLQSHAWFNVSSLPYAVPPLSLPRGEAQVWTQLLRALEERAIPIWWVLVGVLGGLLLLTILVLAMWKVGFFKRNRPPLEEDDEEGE
T1 sequence (P05106 27-788): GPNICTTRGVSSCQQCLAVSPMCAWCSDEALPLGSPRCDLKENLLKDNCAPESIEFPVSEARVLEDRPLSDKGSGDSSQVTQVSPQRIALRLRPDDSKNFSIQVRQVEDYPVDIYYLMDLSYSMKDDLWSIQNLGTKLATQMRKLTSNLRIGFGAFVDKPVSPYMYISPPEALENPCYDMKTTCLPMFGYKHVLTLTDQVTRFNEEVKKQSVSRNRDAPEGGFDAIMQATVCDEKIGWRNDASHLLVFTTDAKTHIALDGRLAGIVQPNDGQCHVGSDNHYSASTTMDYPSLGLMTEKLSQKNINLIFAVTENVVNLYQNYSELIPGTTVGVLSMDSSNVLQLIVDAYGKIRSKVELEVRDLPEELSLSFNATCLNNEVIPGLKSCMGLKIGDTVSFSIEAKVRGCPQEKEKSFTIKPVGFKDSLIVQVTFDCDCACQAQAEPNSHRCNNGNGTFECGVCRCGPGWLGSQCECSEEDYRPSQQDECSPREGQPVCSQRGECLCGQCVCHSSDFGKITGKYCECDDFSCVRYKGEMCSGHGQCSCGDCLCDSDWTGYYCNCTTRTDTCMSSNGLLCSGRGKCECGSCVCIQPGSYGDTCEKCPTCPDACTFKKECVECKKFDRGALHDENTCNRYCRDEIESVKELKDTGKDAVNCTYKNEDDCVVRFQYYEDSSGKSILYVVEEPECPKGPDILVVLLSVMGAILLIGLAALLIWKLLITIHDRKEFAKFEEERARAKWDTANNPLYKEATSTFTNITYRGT
Description: (§3) A cell adhesion assay was used to determine the inhibitory activity of Rho, TMV, and their variants and was conducted according to previously described protocols. 96-well microtiter plates (Costar; Corning) were coated with 100 μL PBS buffer containing 200 μg/mL fibrinogen or 50 μg/mL fibronectin, and incubated overnight at 4° C. Non-specific protein binding sites were blocked by incubating each well with 200 μL of heat-denatured 1% bovine serum albumin (BSA) (Calbiochem) at room temperature for 1.5 h. The heat-denatured BSA was discarded and each well was washed twice with 200 μL PBS.
(§4) Chinese hamster ovary (CHO) cells that expressed integrins αvβ3 (CHO-αvβ3) and αIIbβ3 (CHO-αIIbβ3) were kindly provided by Dr. Y. Takada (Scripps Research Institute) and maintained in Dulbecco's modified Eagle's medium (18, 27). Human erythroleukemia K562 cell was purchased from ATCC and cultured in Roswell Park Memorial Institute (RPMI)—1640 medium containing 10% fetal bovine serum (FBS). Harvested K562 cells were resuspended in RPMI-1640 medium containing 5% FBS. […]
(§5) The adhesions of CHO-αIIbβ3 cells to fibrinogen, CHO-αvβ3 cells to fibrinogen, and K562 cells to fibronectin were used to determine the inhibitory activities of tested protein to integrins αIIbβ3, αvβ3, and α5β1. […] The resulting absorbance was read at 600 nm and the readings were correlated with the number of adhering cells. […]

integrin αvβ3 = test: Cell adhesion assay: CHO-αvβ3 cells to fibrinogen; type: cell-based; settings: CHO-αvβ3 cells to immobilized fibrinogen
Description: as §3, §4, §5

platelets [4] = test: Platelet aggregation (inducer not stated); type: cell-based, human; settings: Table 4; inducer not given
Description: as §1, §2

Q: Which “Collagen-induced platelet aggregation response” value (platelets [1]) does the source give for `N=C(N)NCCCC[C@@H]1NC(=O)CCSSC[C@@H](C(N)=O)NC(=O)[C@@H]2CCCN2C(=O)[C@H](Cc2c[nH]c3ccccc23)NC(=O)[C@H](CC(=O)O)NC(=O)CNC1=O` [eptifibatide] ([Mpa][hArg]GDWPC-NH2; disulfide 1-7) here?
A: significantly suppressed

Q: And the Tail bleeding time (Tail bleeding time)?
A: significantly prolong

Q: And the “IC50 on collagen-induced platelet aggregation” value (platelets [2]; in vitro, FIG. 1 panel A)?
A: 0.75 µg/mL (≈ 0.901 µM)

Q: With Rhodostomin as the compound, how does the IC50 (platelets [3]) read?
A: 81.5 nM

Q: What about the IC50 (integrin αIIbβ3) of the same compound?
A: 59.5 nM

Q: What about the IC50 (integrin αvβ3) of the same compound?
A: 13 ± 5.7 nM

Q: What about the IC50 (platelets [4]) of the same compound?
A: 83.2 ± 10.4 nM

Q: What about the IC50 (platelets [2]; read-out: Platelet aggregation IC50 (nM), Collagen, collagen-induced) of the same compound?
A: 66.8 nM
